Experimental data reported in ChEMBL document CHEMBL1127692, “Application of the three-dimensional structures of protein target molecules in structure-based drug design” (J Med Chem, 1994).
Converted amounts (≈) assume the structure as drawn. Each block holds one molecule with its values, some of them ahead of it.

Key:
[1] = biological target: T1, Human immunodeficiency virus type 1 protease (Human immunodeficiency virus 1, UniProt Q72874)
Description: Inhibition of HIV-1 protease

[2] = biological target: T1, Human immunodeficiency virus type 1 protease; remark: listed apart in the source
Description: Effective concentration of compound for inhibition of HIV 1 protease was determined

[3] = biological target: T1, Human immunodeficiency virus type 1 protease; remark: listed apart in the source
Description: Compound was evaluated for the inhibitory activity against HIV-1 protease

L1210 = assay: cells; settings: Mus musculus
Description: Compound was evaluated for the inhibitory activity of L1210 cells

[4] = biological target: Human immunodeficiency virus type 1 protease (Human immunodeficiency virus 1) (UniProt Q72874)
Thymidylate synthase = Thymidylate synthase (Homo sapiens, UniProt P04818)
Sequence of Thymidylate synthase (P04818 whole entry): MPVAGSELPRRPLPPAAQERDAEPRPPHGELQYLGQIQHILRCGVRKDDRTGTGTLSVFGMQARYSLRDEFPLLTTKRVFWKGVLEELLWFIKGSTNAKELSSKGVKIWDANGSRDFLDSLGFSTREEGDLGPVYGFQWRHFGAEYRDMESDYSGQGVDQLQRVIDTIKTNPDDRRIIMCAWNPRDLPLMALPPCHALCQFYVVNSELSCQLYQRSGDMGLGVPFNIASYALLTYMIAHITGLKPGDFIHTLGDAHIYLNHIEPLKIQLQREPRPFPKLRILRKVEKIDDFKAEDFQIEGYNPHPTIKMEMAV
Description: Compound was evaluated for the inhibitory constant of human thymidylate synthase

[5] = Compound was evaluated for the solubility at the pH 7.4; assay type: ADME; settings: buffer
Carbonic anhydrase 2 = Carbonic anhydrase 2 (Homo sapiens, UniProt P00918)
Description: Compound was evaluated for the inhibitory constant towards Human Carbonic anhydrase II (HCA II)

IC50 [1]: 3000 nM
SMILES: CC(C)(C)OC(=O)N[C@@H](Cc1ccccc1)C(O)[C@H](Cc1ccccc1)NC(=O)OC(C)(C)C

SMILES: CC(=O)N[C@H](C(=O)N[C@H](C(=O)N[C@@H](Cc1ccccc1)C(O)[C@H](Cc1ccccc1)NC(=O)[C@@H](NC(=O)[C@@H](NC(C)=O)C(C)C)C(C)C)C(C)C)C(C)C
IC50 [1]: 10 nM

IC50 [1]: 590 nM
SMILES: CC(C)[C@H](N)C(=O)N[C@@H](Cc1ccccc1)C(O)[C@H](Cc1ccccc1)NC(=O)[C@@H](N)C(C)C

EC50 [2]: 120 nM | Ki [3]: 0.16 nM
SMILES: CC(C)[C@H](NC(=O)OCc1ccccn1)C(=O)N[C@@H](Cc1ccccc1)[C@H](O)[C@@H](O)[C@H](Cc1ccccc1)NC(=O)[C@@H](NC(=O)OCc1ccccn1)C(C)C

IC50 (L1210): 300 nM | Thymidine reversal [4]: 8.5
SMILES: CN(Cc1ccc(S(=O)(=O)N2CCOCC2)cc1)c1ccc2c3c(cccc13)C(=N)N2

Ki (Thymidylate synthase): 2 nM
SMILES: CN(Cc1ccc(S(=O)(=O)N2CCOCC2)cc1)c1ccc2c3c(cccc13)C(N)=N2

EC50 [2]: 60 nM | solubility [5]: 4.7 µM (≈ 3.74 µg/mL) | Ki [3]: 0.18 nM
SMILES: CC(C)[C@H](NC(=O)N(C)Cc1ccccn1)C(=O)N[C@@H](Cc1ccccc1)[C@@H](O)[C@H](O)[C@H](Cc1ccccc1)NC(=O)[C@@H](NC(=O)N(C)Cc1ccccn1)C(C)C

SMILES: CC(C)(C)OC(=O)N[C@@H](Cc1ccccc1)[C@H](O)[C@@H](O)[C@H](Cc1ccccc1)NC(=O)OC(C)(C)C
IC50 [1]: 40 nM

SMILES: CC(C)[C@H](NC(=O)OCc1ccccc1)C(=O)N[C@@H](Cc1ccccc1)C(O)C(O)[C@H](Cc1ccccc1)NC(=O)[C@@H](NC(=O)OCc1ccccc1)C(C)C (single isomer, unassigned; 11)
IC50 [1]: 0.22 nM

EC50 [2]: 20 nM | solubility [5]: 3.1 µM (≈ 2.38 µg/mL) | Ki [3]: 0.09 nM
SMILES: CC(C)[C@H](NC(=O)OCc1ccccn1)C(=O)N[C@@H](Cc1ccccc1)[C@H](O)[C@H](O)[C@H](Cc1ccccc1)NC(=O)[C@@H](NC(=O)OCc1ccccn1)C(C)C

Thymidine reversal [4]: 1.1
SMILES: CCN(Cc1ccc(S(=O)(=O)N2CCNCC2)cc1)c1ccc2c3c(cccc13)C(=O)N2

SMILES: CC(C)[C@H](NC(=O)OCc1ccccc1)C(=O)N[C@@H](Cc1ccccc1)[C@H](O)[C@H](O)[C@H](Cc1ccccc1)NC(=O)[C@@H](NC(=O)OCc1ccccc1)C(C)C
IC50 [1]: 0.22 nM

SMILES: CC(=O)N[C@@H](Cc1ccccc1)C(O)[C@H](Cc1ccccc1)NC(C)=O
IC50 [1]: > 10000 nM

Thymidine reversal [4]: 2.3
SMILES: CN(Cc1ccc(S(=O)(=O)c2ccccc2)cc1)c1ccc2c3c(cccc13)C(N)=N2

SMILES: CC(C)[C@H](NC(=O)OCc1ccccc1)C(=O)N[C@@H](Cc1ccccc1)C(O)C(O)[C@H](Cc1ccccc1)NC(=O)[C@@H](NC(=O)OCc1ccccc1)C(C)C (single isomer, unassigned; 13)
IC50 [1]: 0.38 nM

SMILES: CNC1=Nc2ccc(N(C)Cc3ccc(S(=O)(=O)N4CCOCC4)cc3)c3c(C)ccc1c23
IC50 (L1210): 150 nM | Thymidine reversal [4]: 12.7 | Ki (Thymidylate synthase): 2 nM

EC50 [2]: 70 nM | solubility [5]: 256 µM (≈ 204 µg/mL) | Ki [3]: 0.15 nM | Ki (Carbonic anhydrase 2): 140 nM
SMILES: CC(C)[C@H](NC(=O)N(C)Cc1ccccn1)C(=O)N[C@@H](Cc1ccccc1)[C@H](O)[C@H](O)[C@H](Cc1ccccc1)NC(=O)[C@@H](NC(=O)N(C)Cc1ccccn1)C(C)C [A-77003]

EC50 [2]: 50 nM | solubility [5]: 0.27 µM (≈ 0.208 µg/mL) | Ki [3]: 0.19 nM
SMILES: CC(C)[C@H](NC(=O)OCc1ccccn1)C(=O)N[C@@H](Cc1ccccc1)[C@@H](O)[C@H](O)[C@H](Cc1ccccc1)NC(=O)[C@@H](NC(=O)OCc1ccccn1)C(C)C

EC50 [2]: 280 nM | solubility [5]: 292 µM (≈ 232 µg/mL) | Ki [3]: 1.66 nM
SMILES: CC(C)[C@H](NC(=O)N(C)Cc1ccccn1)C(=O)N[C@@H](Cc1ccccc1)[C@H](O)[C@@H](O)[C@H](Cc1ccccc1)NC(=O)[C@@H](NC(=O)N(C)Cc1ccccn1)C(C)C [A-76928]

IC50 [1]: > 10000 nM
SMILES: N[C@@H](Cc1ccccc1)C(O)[C@@H](N)Cc1ccccc1

Ki (Carbonic anhydrase 2): 17 nM
SMILES: CC(C)[C@H](NC(=O)N(C)Cc1ccccn1)C(=O)N[C@@H](Cc1ccccc1)CC(O)[C@H](Cc1ccccc1)NC(=O)[C@@H](NC(=O)N(C)Cc1ccccn1)C(C)C (single isomer, unassigned)

SMILES: CC(C)(C)OC(=O)N[C@@H](Cc1ccccc1)[C@@H](O)[C@H](O)[C@H](Cc1ccccc1)NC(=O)OC(C)(C)C
IC50 [1]: 280 nM
